Measured values from patent publication US20260150837A1, “GLUCAN DERIVATIVES FOR MICROBIAL CONTROL” (Nutrition & Biosciences USA 4, Inc., priority 2021, published 2026).

Tested on: Escherichia coli ATCC 25922
Assay: ASTM E3160-18 antibacterial efficacy of treated fabric, with ASTM E3162-18 wash durability
Type: cell-based
Conditions: cotton, use level 250-2000 ppm by row; for AM Activity after 25 Real Time Washes: after 25 real time washes (ASTM-E3162-18); for Initial AM Activity: before washing
Method: (Procedure 1A) Exhaust Method: Alpha-1,6-glucan ether compounds (e.g., as prepared in Materials/Methods) were exhaust-applied using Werner Mathis AG BFA-12 exhaust equipment. Individual formulation baths comprising desired concentrations of a glucan ether polymer in water were prepared. Each fabric sample (20 g) was loosely folded horizontally and placed into a test canister, followed by addition of 200 ml of a bath solution. The canisters were then closed and secured to the rotating wheel of the equipment. The rotation speed of the wheel was set to 35 rpm, switching from clockwise to counterclockwise modes at 1-minute intervals. In each case, the instrument, with the samples already loaded, would first heat up at a selected rate of heating until the target temperature was reached, maintaining the temperature for preset durations, before cooling down to initial temperature. Once the exhaustion process was complete, all the fabric samples were removed from the exhaust canisters and passed through padding equipment (Fanyuan Instruments, DW2010A) set to a pressure of 8.4 kg to squeeze out the excess water. Lastly, each sample was dried in a MATHIS lab dryer LTE for 5 minutes at 120° C.
(Procedure 1B) Padding Method: Alpha-1,6-glucan ether compounds (e.g., as prepared in Materials/Methods) were also applied to fabric samples via a padding process using a MATHIS HF or Fanyuan Instruments (DW2010A) padder. Dry fabric was submerged into a bath containing an aqueous solution of glucan ether compound at a desired concentration in water and passed through padder rollers to squeeze out (applied pressure equaled 3.1 bar) excess treatment solution. Each fabric sample was dried and cured in a MATHIS lab dryer LTE for 5 minutes at 120° C. Each glucan solution was prepared to account for water weight pick-up by each fabric type and their exhaust potential.
(Procedure 2A) ASTM E3160-18: In some cases, an alpha-1,6-glucan ether compound herein was considered to be antimicrobially efficient if it imparted a >3 log10 reduction of bacterial growth as tested by the American Society for Testing and Materials (ASTM) method E3160-18 (Quantitative Evaluation of the Antibacterial Properties of Porous Antibacterial Treated Articles, incorporated herein by reference) at a use level ≤5000 ppm. The ASTM E3160 method was performed as follows: The day before the test, a culture of Escherichia coli of the American Type Culture Collection (ATCC) 25922 was inoculated by transferring a single colony from tryptic soy agar (TSA), using a sterile loop, into a tryptic soy broth (TSB). On the day of the experiment (next day), each fabric sample (treated with an alpha-1,6-glucan ether herein or a control compound, e.g., prepared by Procedure 1A above) was cut into three 0.40-g swatches (about 1×1 inch). Each fabric swatch was placed into a 50-mL sterile specimen cup. On the same day, bacterial/working inoculum was prepared by diluting the overnight culture of E. coli into phosphate buffer supplemented with TSB (1:500) and 0.05% TRITON X-100 to obtain a bacterial concentration that was between 2.5×10^5 colony forming units (CFU)/mL and 1.0×10^6 CFU/mL, with a target concentration of 6×10^5 CFU/mL. All samples were inoculated by applying 0.2 mL of working inoculum in several aliquots directly onto the fabric surface, and were allowed to incubate for 24 hours at 37° C. Samples were neutralized with 10 mL Dey-Engley (D-E) neutralizing buffer and enumerated in triplicate in 96-well plates containing 180 μL TSB by transferring 20 μL of neutralized sample to the top well of the 96-well plates and serially diluting 20 μL down the plate.

Row | Structure (SMILES) | AM Activity after 25 Real Time Washes [log10 log10 reduction] | Initial AM Activity [log10 log10 reduction]
1 | CCCCCCCCCCCC(=O)N[C@@H](CCCNC(=N)N)C(=O)OCC [Comparative 5, Lauroyl arginine ethyl ester] | <1 | 5
2 | CCCCCCCCCCCC[N+](C)(C)C.[Cl-] [Comparative 7, dodecyltrimethylammonium chloride] | <1 | 5
3 | CCCCCCCCCCCC[N+](C)(C)CC(O)CCl.[Cl-] (centres unmarked) [Comparative 6, 3-chloro-2-hydroxypropyl dodecyldimethylammonium chloride] | <2 | 5
4 | CCCCCCCCCCCCCCCCCC[N+](C)(C)CCC[Si](O)(O)O.[Cl-] [Comparative 3, 3-(trihydroxysilyl)propyldimethyl-octadecyl ammonium chloride] | <1 | 5
